The numbers were not newly measured in patent US10918618B2, “Methods of reducing microbial contamination” (3M INNOVATIVE PROPERTIES COMPANY, priority 2005, dated 2021), which cites them from elsewhere.

`N=C(NCCCCCCNC(=N)NC(=N)Nc1ccc(Cl)cc1)NC(=N)Nc1ccc(Cl)cc1.O=C(O)[C@H](O)[C@@H](O)[C@H](O)[C@H](O)CO.O=C(O)[C@H](O)[C@@H](O)[C@H](O)[C@H](O)CO` [digluconate salt, chlorhexidine digluconate]: the solubility limit is on record as 20 g/100 mL.
Take `[H]/N=C(\N/C(=N/[H])NCCCCCCNC(=N)NC(=N)Nc1ccc(Cl)cc1)Nc1ccc(Cl)cc1` [diacetate, chlorhexidine]: the solubility limit is given as 1.9 g/100 mL.
